From patent US20260028354A1, “TETRAHYDRONAPHTHALENE DERIVATIVES AS ESTROGEN RECEPTOR DEGRADERS” (REGENT OF THE UNIVERSITY OF MICHIGAN, priority 2022, published 2026)
Read-outs that look alike come from different tables or passages of the source.

Assays:
[1] = Cell growth assay (WST-8) for "B" compounds; assay type: cell-based; conditions: T47D, read-out: Cell growth Inhibition in T47D cell line IC50
Outline: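 Four-day compound exposure of cells plated at 1500/well the day before. Read-out is WST-8 (10%, 2.5 h, 37 °C) absorbance at 450 nm, normalized to vehicle control over three independent repeats.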

[2] = biological target: ER (Homo sapiens (Human), UniProt P03372); assay: In-cell western blot analysis of ER for "B" compounds; assay type: cell-based; conditions: 16 hours, read-out: ICW DC50
ER, sequence (P03372 whole entry): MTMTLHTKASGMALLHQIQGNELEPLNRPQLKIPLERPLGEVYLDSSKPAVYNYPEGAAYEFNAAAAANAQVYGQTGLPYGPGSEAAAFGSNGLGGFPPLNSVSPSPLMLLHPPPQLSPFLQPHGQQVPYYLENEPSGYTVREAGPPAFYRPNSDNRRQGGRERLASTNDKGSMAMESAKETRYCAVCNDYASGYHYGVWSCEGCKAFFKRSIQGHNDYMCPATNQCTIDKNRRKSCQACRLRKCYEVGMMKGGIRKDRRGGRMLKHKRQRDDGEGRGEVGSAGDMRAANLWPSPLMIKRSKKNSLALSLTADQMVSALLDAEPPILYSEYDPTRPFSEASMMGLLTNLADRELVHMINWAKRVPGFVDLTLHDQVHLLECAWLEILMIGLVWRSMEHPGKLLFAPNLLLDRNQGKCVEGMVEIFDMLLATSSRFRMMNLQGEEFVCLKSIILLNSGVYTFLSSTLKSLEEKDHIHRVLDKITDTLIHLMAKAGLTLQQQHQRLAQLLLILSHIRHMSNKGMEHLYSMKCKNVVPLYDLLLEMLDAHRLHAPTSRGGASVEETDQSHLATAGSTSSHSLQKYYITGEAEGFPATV
Outline: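 ER levels given as a percentage of untreated/DMSO-treated wells (100%). Detection used primary antibodies for 2 h at room temperature followed by 680 and 800 nm fluorescent secondaries at 1:1000 for 1 h, read by LI-COR imaging.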

| DC50 [2] | Structure (SMILES) | IC50 ([1]; T47D cell line) | IC50 [1] |
| --- | --- | --- | --- |
| 0.01 to 0.1 µM | O=C1CCC(N2C(=O)c3cc4c(cc3C2=O)CN(CC(=O)N2CCOC3(CCN(c5ccc([C@@H]6c7ccc(O)cc7CC[C@@H]6c6ccccc6)cc5)CC3)C2)C4)C(=O)N1 (stereo partly drawn) [Compound B325, 2-(2,6-dioxopiperidin-3-yl)-6-(2-(9-(4-((1R,2S)-6-hydroxy-2-phenyl-1,2,3,4-tetrahydronaphthalen-1-yl)phenyl)-1-oxa-4,9-diazaspiro[5.5]undecan-4-yl)-2-oxoethyl)-6,7-dihydropyrrolo[3,4-f]isoindole-1,3(2H,5H)-dione] | 0.001 to 0.01 µM |  |
| < 0.01 µM | O=C1CC[C@H](N2Cc3cc4c(cc3C2=O)OC[C@@H]2CN(C[C@@H]3COC5(CCN(c6ccc([C@@H]7c8ccc(O)cc8CC[C@@H]7c7ccccc7)cc6)CC5)C3)CCN42)C(=O)N1 [Compound B399, (S)-3-((S)-3-(((R)-8-(4-((1R,2S)-6-hydroxy-2-phenyl-1,2,3,4-tetrahydronaphthalen-1-yl)phenyl)-1-oxa-8-azaspiro[4.5]decan-3-yl)methyl)-8-oxo-1,2,3,4,4a,5,8,10-octahydro-9H-pyrazino[1′,2′:4,5][1,4]oxazino[2,3-f]isoindol-9-yl)piperidine-2,6-dione] | < 0.001 µM |  |
| 0.01 to 0.1 µM | O=C1CCC(N2Cc3c(ccc4c3OC[C@H]3CN(CC5COC6(CN(c7ccc([C@@H]8c9ccc(O)cc9CC[C@@H]8c8ccccc8)cc7)C6)OC5)CCN43)C2=O)C(=O)N1 (stereo partly drawn) [Compound B327, 3-((R)-7-((2-(4-((1R,2S)-6-hydroxy-2-phenyl-1,2,3,4-tetrahydronaphthalen-1-yl)phenyl)-5,9-dioxa-2-azaspiro[3.5]nonan-7-yl)methyl)-1-oxo-1,3,5,5a,6,7,8,9-octahydro-2H-pyrazino[1′,2′:4,5][1,4]oxazino[2,3-e]isoindol-2-yl)piperidine-2,6-dione] | < 0.001 µM |  |
| 0.01 to 0.1 µM | O=C1CCC(N2Cc3cc4c(cc3C2=O)OC[C@@H]2CN(C(=O)CN3C[C@@H]5CN(c6ccc([C@@H]7c8ccc(O)cc8CC[C@@H]7c7ccccc7)cc6)C[C@@H]5C3)CCN42)C(=O)N1 (stereo partly drawn) [Compound B157, 3-((S)-3-(2-((3aR,6aS)-5-(4-((1R,2S)-6-hydroxy-2-phenyl-1,2,3,4-tetrahydronaphthalen-1-yl)phenyl)hexahydropyrrolo[3,4-c]pyrrol-2(1H)-yl)acetyl)-8-oxo-1,2,3,4,4a,5,8,10-octahydro-9H-pyrazino[1′,2′:4,5][1,4]oxazino[2,3-f]isoindol-9-yl)piperidine-2,6-dione] | < 0.001 µM |  |
| > 0.1 µM | CCN(CC1CCN(c2ccc([C@@H]3c4ccc(O)cc4CC[C@@H]3c3ccccc3)cc2)CC1)[C@H]1C[C@H]2COc3cc4c(cc3N2C1)CN(C1CCC(=O)NC1=O)C4=O (stereo partly drawn) [Compound B311, 3-((2S,3aS)-2-(ethyl((1-(4-((1R,2S)-6-hydroxy-2-phenyl-1,2,3,4-tetrahydronaphthalen-1-yl)phenyl)piperidin-4-yl)methyl)amino)-7-oxo-2,3,3a,4,7,9-hexahydro-1H,8H-pyrrolo[1′,2′:4,5][1,4]oxazino[2,3-f]isoindol-8-yl)piperidine-2,6-dione] | < 0.001 µM |  |
| > 0.1 µM | CN(C(=O)c1ccc2c(c1)OC[C@H]1CN(CC3CC4(CCN(c5ccc([C@@H]6c7ccc(O)cc7CC[C@@H]6c6ccccc6)cc5)CC4)C3)CCN21)C1CCC(=O)NC1=O (stereo partly drawn) [Compound B326, (4aR)-N-(2,6-dioxopiperidin-3-yl)-3-((7-(4-((1R,2S)-6-hydroxy-2-phenyl-1,2,3,4-tetrahydronaphthalen-1-yl)phenyl)-7-azaspiro[3.5]nonan-2-yl)methyl)-N-methyl-1,2,3,4,4a,5-hexahydrobenzo[b]pyrazino[1,2-d][1,4]oxazine-8-carboxamide] | 0.001 to 0.01 µM |  |
| 0.01 to 0.1 µM | O=C1CC[C@H](NC(=O)c2ccc3c(n2)OC[C@H]2CN(CC4COC5(CN(c6ccc([C@@H]7c8ccc(O)cc8CC[C@@H]7c7ccccc7)cc6)C5)OC4)CCN32)C(=O)N1 [Compound B347, (R)-N-((S)-2,6-dioxopiperidin-3-yl)-3-((2-(4-((1R,2S)-6-hydroxy-2-phenyl-1,2,3,4-tetrahydronaphthalen-1-yl)phenyl)-5,9-dioxa-2-azaspiro[3.5]nonan-7-yl)methyl)-1,2,3,4,4a,5-hexahydropyrazino[1,2-d]pyrido[2,3-b][1,4]oxazine-8-carboxamide] | < 0.001 µM |  |
| < 0.01 µM | O=C1CCC(N2Cc3cc4c(cc3C2=O)OC[C@@H]2CN(C(=O)CN3CC5(CCN(c6ccc([C@@H]7c8ccc(O)cc8CC[C@@H]7c7ccccc7)cc6)C5)C3)CCN42)C(=O)N1 (stereo partly drawn) [Compound B206, 3-((S)-3-(2-(6-(4-((1R,2S)-6-hydroxy-2-phenyl-1,2,3,4-tetrahydronaphthalen-1-yl)phenyl)-2,6-diazaspiro[3.4]octan-2-yl)acetyl)-8-oxo-1,2,3,4,4a,5,8,10-octahydro-9H-pyrazino[1′,2′:4,5][1,4]oxazino[2,3-f]isoindol-9-yl)piperidine-2,6-dione] | < 0.001 µM |  |
| 0.01 to 0.1 µM | O=C1CCC(N2Cc3c(ccc4c3N3CCN(CC5CCN(c6ccc([C@@H]7c8ccc(O)cc8CC[C@@H]7c7ccccc7)cc6)CC5)C[C@H]3CO4)C2=O)C(=O)N1 (stereo partly drawn) [Compound B243, 3-((S)-9-((1-(4-((1R,2S)-6-hydroxy-2-phenyl-1,2,3,4-tetrahydronaphthalen-1-yl)phenyl)piperidin-4-yl)methyl)-3-oxo-1,3,7,7a,8,9,10,11-octahydro-2H-pyrazino[1′,2′:4,5][1,4]oxazino[3,2-e]isoindol-2-yl)piperidine-2,6-dione] | 0.001 to 0.01 µM |  |
| < 0.01 µM | O=C1CCC(N2Cc3cc4c(cc3C2=O)CN(CC(=O)N2CCC3(CC2)CCN(c2ccc([C@@H]5c6ccc(O)cc6CC[C@@H]5c5ccccc5)cc2)CC3)C4)C(=O)N1 (stereo partly drawn) [Compound B166, 3-(6-(2-(9-(4-((1R,2S)-6-hydroxy-2-phenyl-1,2,3,4-tetrahydronaphthalen-1-yl)phenyl)-3,9-diazaspiro[5.5]undecan-3-yl)-2-oxoethyl)-1-oxo-3,5,6,7-tetrahydropyrrolo[3,4-f]isoindol-2(1H)-yl)piperidine-2,6-dione] | < 0.001 µM |  |
| 0.01 to 0.1 µM | O=C1CC[C@H](NC(=O)c2ccc3c(c2)OC[C@H]2CN(CC4CCN(c5ccc([C@@H]6c7ccc(O)cc7CC[C@@H]6c6ccccc6)cc5)CC4)CCN32)C(=O)N1 [Compound B256, (R)-N-((S)-2,6-dioxopiperidin-3-yl)-3-((1-(4-((1R,2S)-6-hydroxy-2-phenyl-1,2,3,4-tetrahydronaphthalen-1-yl)phenyl)piperidin-4-yl)methyl)-1,2,3,4,4a,5-hexahydrobenzo[b]pyrazino[1,2-d][1,4]oxazine-8-carboxamide] | 0.001 to 0.01 µM |  |
| 0.01 to 0.1 µM | O=C1CCC(N2Cc3c(ccc4c3OC[C@H]3CN(C(=O)CN5CC(Oc6ccc([C@@H]7c8ccc(O)cc8CC[C@@H]7c7ccccc7)cc6)C5)CCN43)C2=O)C(=O)N1 (stereo partly drawn) [Compound B245, 3-((R)-7-(2-(3-(4-((1R,2S)-6-hydroxy-2-phenyl-1,2,3,4-tetrahydronaphthalen-1-yl)phenoxy)azetidin-1-yl)acetyl)-1-oxo-1,3,5,5a,6,7,8,9-octahydro-2H-pyrazino[1′,2′:4,5][1,4]oxazino[2,3-e]isoindol-2-yl)piperidine-2,6-dione] | < 0.001 µM |  |
| < 0.01 µM | O=C1CC[C@H](N2Cc3cc4c(cc3C2=O)OC[C@@H]2CN(CC3COC5(CCN(c6ccc([C@@H]7c8ccc(O)cc8CC[C@@H]7c7ccccc7)cc6)CC5)C3)CCN42)C(=O)N1 (stereo partly drawn) [Compound B227, (3S)-3-((4aS)-3-((8-(4-((1R,2S)-6-hydroxy-2-phenyl-1,2,3,4-tetrahydronaphthalen-1-yl)phenyl)-1-oxa-8-azaspiro[4.5]decan-3-yl)methyl)-8-oxo-1,2,3,4,4a,5,8,10-octahydro-9H-pyrazino[1′,2′: 4,5][1,4]oxazino[2,3-f]isoindol-9-yl)piperidine-2,6-dione] | < 0.001 µM |  |

| Structure (SMILES) | DC50 [2] | IC50 ([1]; T47D cell line) | IC50 [1] |
| --- | --- | --- | --- |
| O=C1CCC(N2Cc3c(ccc4c3OCC43CCN(CC4CCC5(CCN(c6ccc([C@@H]7c8ccc(O)cc8CC[C@@H]7c7ccccc7)cc6)CC5)C4)CC3)C2=O)C(=O)N1 (stereo partly drawn) [Compound B364, 3-(1′-((8-(4-((1R,2S)-6-hydroxy-2-phenyl-1,2,3,4-tetrahydronaphthalen-1-yl)phenyl)-8-azaspiro[4.5]decan-2-yl)methyl)-6-oxo-6,8-dihydro-2H,7H-spiro[furo[2,3-e]isoindole-3,4′-piperidin]-7-yl)piperidine-2,6-dione] | > 0.1 µM |  | 0.001 to 0.01 µM |
| O=C1CCC(N2Cc3c(ccc4c3OCC43CCN(CC4CC5(CCN(c6ccc([C@@H]7c8ccc(O)cc8CC[C@@H]7c7ccccc7)cc6)CC5)CO4)CC3)C2=O)C(=O)N1 (stereo partly drawn) [Compound B175, 3-(1′-((8-(4-((1R,2S)-6-hydroxy-2-phenyl-1,2,3,4-tetrahydronaphthalen-1-yl)phenyl)-2-oxa-8-azaspiro[4.5]decan-3-yl)methyl)-6-oxo-6,8-dihydro-2H,7H-spiro[furo[2,3-e]isoindole-3,4′-piperidin]-7-yl)piperidine-2,6-dione] | 0.01 to 0.1 µM |  | < 0.001 µM |
| O=C1CCC(N2Cc3cc4c(cc3C2=O)OC[C@@H]2CN(CC(=O)N3CCC5(CC3)CCN(c3ncc([C@@H]6c7ccc(O)cc7CC[C@@H]6c6ccccc6)cn3)CC5)CCN42)C(=O)N1 (mixture of isomers) [Compound B149, 3-((S)-3-(2-(9-(5-(cis-6-hydroxy-2-phenyl-1,2,3,4-tetrahydronaphthalen-1-yl)pyrimidin-2-yl)-3,9-diazaspiro[5.5]undecan-3-yl)-2-oxoethyl)-8-oxo-1,2,3,4,4a,5,8,10-octahydro-9H-pyrazino[1′,2′: 4,5][1,4]oxazino[2,3-f]isoindol-9-yl)piperidine-2,6-dione] | 0.01 to 0.1 µM |  | < 0.001 µM |
